“Also recorded” adds a separate entry of the source.
Tests used:
hepatic aggregates = assay: Diffusion of DAPI through ligated constructs after i.p. injection; format: in vivo, mouse; settings: post i.p. injection, EC Cord Ligated procedure
Protocol: FIGS. 16A-16B show the diffusion of small-molecule DAPI through ligated constructs. Constructs containing both hepatic aggregates and cords were implanted using procedures identical to those of the “EC Cord Ligated” control. Following implantation, the animals were injected i.p. with DAPI using the same volume and concentration typically used for luciferin administration. […] By 20 min post injection, DAPI-positive hepatic aggregates were identified throughout the constructs as shown by FIG. 16B.
To explore whether this vascularization strategy has potential to enable applications such as human tissue replacement or humanized mouse models, it was tested whether coimplantation of EC cords can support primary human hepatocytes. […] To test whether enhanced hepatic function in animals with EC cords was the result of direct paracrine signaling between adjacent EC cords and hepatocytes or of improved access to a blood supply, the parametrial fat pad was severed upstream of the constructs immediately after implantation to reduce blood supply (“EC Cord Ligated”; FIG. 4E). Bioluminescence imaging was performed 20 min after luciferin injection at each time point, which was confirmed to be adequate time for diffusionbased permeation of the construct in ligated control tissues by DAPI (a small molecule similar in size to luciferin; FIG. 16).

HUVECs and 10T1/2s = assay: Cord formation/contraction of HUVEC and 10T1/2 cells in collagen within PDMS microchannels, with contractility inhibitors; format: cell-based, human, mouse; settings: treated immediately after seeding; 20 μM blebbistatin or 25 μM Y27632
Protocol: To test whether patterned endothelial cell (EC) cords induce vivo vessel formation in vivo, EC cords embedded in a fibrin matrix were implanted into the intraperitoneal space of nude mice (schematic, FIG. 1A). The cords were first prepared by seeding HUVECs and 10T1/2 cells suspended within collagen pre-polymer into a PDMS template and allowed to contract and remodel the collagen over a period of 4 hours. During this maturation period, the cells contracted against the matrix and each other, which caused the cords to shrink in diameter to approximately 50% of their original size (FIG. 1B). The HUVECs and 10T1/2 cells were mobile within the cords and also underwent some sorting during this time, with many of the 10T1/2 localizing to the periphery of the cords (FIG. 1C). […] After allowing the cords to contract, they were embedded into a larger fibrin gel (FIG. 1E) and prepared for implantation by attaching the samples to a polypropylene surgical mesh. The cords were implanted adjacent to a fat pad into athymic mice and resected at various time points. Tissues resected after 7 days, sectioned and stained with H&E indicated the presence of blood in areas where EC cords were initially present (FIG. 1F).
Micropatterning of Endothelial cell cords. EC cords were micropatterned as previously described (2). […]

time to permeate construct and stain hepatic aggregates (hepatic aggregates) [min]	Structure (SMILES)	cord formation / cord contraction under contractility inhibitor (HUVECs and 10T1/2s)
≤ 20	N=C(N)c1ccc(-c2cc3ccc(C(=N)N)cc3[nH]2)cc1 [DAPI]	
	C[C@@H](N)[C@H]1CC[C@H](C(=O)Nc2ccncc2)CC1 [Y27632]	failed to form cords
	Cc1ccc2c(c1)C(=O)C1(O)CCN(c3ccccc3)C1=N2 (stereo not drawn) [blebbistatin]	prevented their contraction and elongation of the cells along the collagen; also recorded: failed to form cords
